Source: US11230535B2, “CFTR regulators and methods of use thereof” (THE REGENTS OF THE UNIVERSITY OF CALIFORNIA, priority 2015, dated 2022)
Entries after “also recorded” stand apart in the source; their conditions may differ.

Legend:
[1] = Compound accumulation in systemic tissues after 14 days topical dosing; assay type: in vivo, mouse; details: for amount in mouse blood, brain, liver and kidney (below limit of detection): two weeks, three times per day topical 0.1 nmol
mice = assay: Ocular toxicity after chronic topical dosing (slit-lamp, lissamine green staining); assay type: in vivo; details: two weeks, three times per day topical
Experimental: (§1) To assess corneal epithelial disruption, 5 μL of lissamine green (LG) dye (1%) was applied to the ocular surface of isofluorane-anesthetized mice. Photographs of the eye were taken using a Nikon Digital camera adapted to an Olympus Zoom Stereo Microscope (Olympus, Center Valley, Pa., USA). Each corneal quadrant was scored on a 3-point scale by one blinded, trained observer, with the extent of staining in each quadrant classified as: 0, no staining; 1, sporadic (involving <25% of the total surface) staining; grade 2, diffuse punctate staining (25-75%); and grade 3, coalesced punctate staining (≥75%). The total grade is reported as the sum of scores from all four quadrants, ranging from 0 to 12.
as §1, with “Lissamine green staining. To” for “To”

[2] = Tear film pharmacokinetics (LC/MS of tear washes)
cAMP = assay: Cellular cAMP immunoassay in CFTR-expressing FRT cells; assay type: cell-based, rat; details: 10 μM, 10 min
Experimental: (§2) cAMP and Ca^2+ assays. FRT cells expressing wildtype CFTR were cultured in 12-well plates. After washing with PBS, cells were incubated for 10 min with compounds in the absence or presence of 90 nM forskolin and then lysed. Lysates were assayed for cAMP content using a cAMP immunoassay kit (Parameter cAMP Immunoassay Kit, R&D Systems, Minneapolis, Minn.). For cytoplasmic calcium measurements, FRT cells in 96-well black-walled microplates were loaded with Fluo-4 NW (Invitrogen, Carlsbad, Calif.) and Fluo-4 fluorescence was measured with a plate reader equipped with syringe pumps and monochromators.

cytoplasmic calcium = assay: Cytoplasmic calcium by Fluo-4 fluorescence in FRT cells; assay type: cell-based, rat; details: 10 μM; for inhibition of the ATP-stimulated elevation in cytoplasmic calcium: 100 μM ATP
Experimental: as §2

TMEM16A = biological target: T1, TMEM16A (Homo sapiens, UniProt Q5XXA6); assay: TMEM16A plate reader assay in FRT cells expressing YFP and TMEM16A; assay type: cell-based; details: 10 μM
T1 construct: expressed in transfected cells; host or cells: Fischer rat thyroid (FRT) cells stably co-expressing YFP-H148Q
T1 sequence (Q5XXA6 1-986): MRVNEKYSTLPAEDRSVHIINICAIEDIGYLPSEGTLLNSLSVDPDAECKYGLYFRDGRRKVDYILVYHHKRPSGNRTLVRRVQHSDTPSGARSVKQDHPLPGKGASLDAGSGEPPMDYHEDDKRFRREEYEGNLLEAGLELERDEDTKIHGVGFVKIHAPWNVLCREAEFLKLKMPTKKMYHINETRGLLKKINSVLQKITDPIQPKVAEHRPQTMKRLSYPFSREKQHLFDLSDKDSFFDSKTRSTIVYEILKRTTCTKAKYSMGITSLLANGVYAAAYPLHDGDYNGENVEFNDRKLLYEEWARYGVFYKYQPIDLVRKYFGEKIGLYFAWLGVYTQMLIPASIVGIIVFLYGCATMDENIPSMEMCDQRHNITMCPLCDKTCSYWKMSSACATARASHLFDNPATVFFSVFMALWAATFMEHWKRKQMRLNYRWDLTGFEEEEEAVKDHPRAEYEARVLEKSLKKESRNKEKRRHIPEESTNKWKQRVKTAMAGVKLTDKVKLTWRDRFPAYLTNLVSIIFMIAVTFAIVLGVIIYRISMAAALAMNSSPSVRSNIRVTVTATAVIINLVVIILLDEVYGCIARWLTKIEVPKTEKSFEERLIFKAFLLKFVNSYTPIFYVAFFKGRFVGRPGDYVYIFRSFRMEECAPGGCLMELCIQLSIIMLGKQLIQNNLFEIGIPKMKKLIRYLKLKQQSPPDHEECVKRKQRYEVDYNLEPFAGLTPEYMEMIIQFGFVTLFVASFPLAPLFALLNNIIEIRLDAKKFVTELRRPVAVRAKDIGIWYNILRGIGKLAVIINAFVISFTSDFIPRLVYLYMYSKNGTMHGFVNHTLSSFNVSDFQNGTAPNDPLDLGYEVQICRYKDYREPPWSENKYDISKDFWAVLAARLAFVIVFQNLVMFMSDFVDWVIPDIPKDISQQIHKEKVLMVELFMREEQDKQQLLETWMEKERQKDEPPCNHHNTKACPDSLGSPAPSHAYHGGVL
Experimental: Platereader assays of chloride channel function. CFTR activity was assayed as described. FRT cells co-expressing YFP and wildtype CFTR were washed with phosphate-buffered saline (PBS) and then incubated for 10 min with test compounds in PBS containing 125 nM forskolin. I^− influx was measured in a plate reader with initial baseline read for 2 s and then for 12 s after rapid addition of an I^−-containing solution. TMEM16A activity was assayed similarly as described using FRT cells co-expressing YFP and TMEM16A. Activity of non-TMEM16A CaCC was assayed as described in HT-29 cells expressing YFP. In each assay initial rates of I^− influx were computed as a linear measure of channel function.

[3] = Chemical stability in ophthalmic vehicle (LC/MS); assay type: physicochemical; details: 100 μM, 0.3% CMC in Ringer's solution, 24 h at 40° C.
loperamide-treated mice = assay: Loperamide-induced mouse model of constipation (3-h stool weight, pellet number, water content)

| Structure (SMILES) | amount in mouse blood, brain, liver and kidney (below limit of detection) [1] | LG staining after chronic dosing (mice) | ocular toxicity (slit-lamp: conjunctival hyperemia, anterior chamber inflammation, lens clarity) (mice) | cellular cAMP (cAMP) | increase of cytoplasmic calcium (cytoplasmic calcium) | inhibition of the ATP-stimulated elevation in cytoplasmic calcium (cytoplasmic calcium) | effect on calcium-activated chloride channels in TMEM16A-expressing FRT cells (TMEM16A) | also measured |
| --- | --- | --- | --- | --- | --- | --- | --- | --- |
| CCN(CC)c1nc(Nc2ccccc2)nc(OC(C(F)(F)F)C(F)(F)F)n1 [CFTRact-K089, N,N-Diethyl-6-[(1,1,1,3,3,3-hexafluoropropan-2-yl)oxy]-N′-phenyl-1,3,5-triazine-2,4-diamine] | < 10 fmol | no corneal or conjunctival epithelial disruption | no signs of ocular toxicity |  |  |  |  | systemic absorption, in words ([1]; topical): without detectable systemic absorption; amount recovered from tear fluid at six hours ([2]; 0.1 nmol (2 μL, 50 μM) instilled): 0.011 ± 0.004 pmol; duration of predicted therapeutic levels in tear fluid ([2]; 0.1 nmol instilled): at least six; tear film bioavailability, in words ([2]; topical): sustained tear film bioavailability |
| CNc1nc(Nc2ccccc2)nc(OCC(F)(F)C(F)F)n1 [compound 12, N-methyl-N′-phenyl-6-(2,2,3,3-tetrafluoropropoxy)-1,3,5-triazine-2,4-diamine] |  |  |  | without causing cAMP or calcium elevation; also recorded: did not elevate cellular cAMP | without causing cAMP or calcium elevation; also recorded: did not | did not | no inhibition; also recorded: neither inhibited nor activated | chemical stability in ophthalmic vehicle [3]: stable at 100 μM in an ophthalmic vehicle; also recorded: remained chemically stable |
| CCN(CC)c1nc(Nc2ccc3ncsc3c2)nc(OC(C(F)(F)F)C(F)(F)F)n1 [6k, N′-(1,3-Benzothiazol-6-yl)-N,N-diethyl-6-[(1,1,1,3,3,3-hexafluoropropan-2-yl)oxy]-1,3,5-triazine-2,4-diamine] |  |  |  | did not elevate cellular cAMP | did not | did not | no inhibition; also recorded: neither inhibited nor activated |  |
| Nc1ccc([N+](=O)[O-])cc1-c1nc2ccccc2n(Cc2ccccc2)c1=O [CFTRact-J027, 3-(2-amino-5-nitrophenyl)-1-benzylquinoxalin-2(1H)-one] | < 700 fmol | no corneal or conjunctival epithelial disruption | no signs of ocular toxicity |  |  |  |  | stool weight, pellet number, water content (loperamide-treated mice; 10 mg/kg ip, loperamide-treated mice): normalized each of the stool parameters; efficacy after chronic administration (loperamide-treated mice; 10 mg/kg oral daily for 7 days, loperamide 1 h after final dose): remained effective in normalizing stool output and water content; effect on stool parameters in cystic fibrosis mice (loperamide-treated mice; CF mice lacking functional CFTR): without effect; stool output or water content in control mice (loperamide-treated mice; ip, non-loperamide-treated mice): did not affect stool output or water content; stool output, oral, control mice (loperamide-treated mice; oral 10 mg/kg, control mice): no effect; stool output and water content, oral administration (loperamide-treated mice; oral (10 mg/kg) 1 h before loperamide, 10 mg/kg): normalized stool output and water content; also recorded: effective in normalizing stool output and water content; ED50, oral administration (loperamide-treated mice; oral, loperamide model): 0.5 mg/kg |
